Laboratory results published in PMC5618191 (Toxins, 2017).
Where two headings read alike, the source gives them in different places.

Assays:
Format in all cases: cell-based, human
HUVEC cells = experiment: Vessel forming and migratory ability of HUVEC cells; conditions: subtoxic concentrations, unpublished data
[1] = tested on: SW620 colon metastasis cells; experiment: Cell viability assay (MTT, 72 h)
Method: (§1) For the cell lines KB-3-1 and SW480 2 × 10^3 cells, for NIH/3T3, CT-26, HaCaT, and GH354 cells 3 × 10^3 cells and for ME-180 and SW620 cells 4 × 10^3 cells were seeded into 96-well pates and incubated at 37 °C (5% CO2) overnight. […] For higher cell confluency, NIH/3T3, CT-26, HaCaT, KB-3-1, and SW480 cells were grown to a cell density of approximately 50–60% before treatment. […] The percentage of viable cells was detected after incubation with 3-(4,5-dimethylthiazol-2-yl)-2,5-diphenyltetrazolium bromide (MTT) at 37 °C for 1–4 h, depending on the cell line, according to the user manual (EZ4U, Biomedica, Vienna, Austria). […] All experiments were conducted using full-growth media with 10% FBS in triplicate and repeated three times. The cell confluency was analyzed by Image J 1.50i (NIH, New York, NY, USA).

[2] = tested on: KB-3-1 cervix carcinoma cells; experiment: Cell viability assay (MTT, 72 h)
Method: as §1

[3] = tested on: SW480 colorectal adenocarcinoma cells; experiment: Cell viability assay (MTT, 72 h)
Method: as §1

[4] = tested on: ME-180 cervix metastasis cells; experiment: Cell viability assay (MTT, 72 h); conditions: ME-180, sparse (5–10% confluency)
Method: as §1

[5] = tested on: GH354 cervix adenocarcinoma cells; experiment: Cell viability assay (MTT, 72 h); conditions: GH354, sparse (5–10% confluency)
Method: as §1

[6] = tested on: HaCaT non-malignant keratinocytes; experiment: Cell viability assay (MTT, 72 h)
Method: as §1

KB-3-1 cells [7] = experiment: Cell cycle analysis (PI staining, flow cytometry); conditions: KB-3-1, subtoxic concentrations
Method: 1. Supplementary Materials and Methods
KB-3-1 cells (3.5x105/per well) were seeded into 6-well plates and treated the next day with the […]
After incubation at 37°C for another 24 h, cells were trypsinized, centrifuged (8 min, 300g, RT) and fixed in 70% ethanol and stored at -20°C overnight.
Fixed cells were centrifuged (1 min, 6000g) and resuspended in 100 µL of 0.9% NaCl. RNA was digested with 0.2 mg/mL of RNase for 30 min at 37°C. DNA was stained with propidium iodide (PI, 0.01 mg/mL, Sigma-Aldrich St. Louis, Missouri, USA) for 30 min at 4°C in the dark. Afterwards, cells were analyzed by flow cytometry using FACS Calibur (BD Biosciences, Franklin Lakes, New Jersey, USA) as described previously. CellQuest Pro software (BD Biosciences) was utilized to determine percentages of the respective cell cycle phases. […]
The following primary […]
antibodies specific for the following targets were diluted 1:1000 in TBST/3% BSA (w/v): PARP, Bak, Bax, Bim, Bcl-xL (polyclonal, Cell Signaling Technology, Beverly, MA, USA), caspase 9, cl. caspase 9 (monoclonal, Cell Signaling Technology) and β-actin (monoclonal, Clone AC-15, Sigma-Aldrich).
Secondary horseradish peroxidase-labeled antibodies (goat anti-rabbit or anti-mouse, Santa Cruz Biotechnology, Dallas, Texas, TX, USA) were diluted 1:10,000 in TBST/1% BSA. […]

KB-3-1 cells [8] = experiment: Western blot analysis of apoptosis proteins; conditions: KB-3-1, 24 h
Method: 1. Supplementary Materials and Methods […]
1.3 Western Blot Analysis […]
according to standard procedures, separated by SDS-PAGE, and transferred to a polyvinylidene difluoride membrane for Western blotting as described previously. The following primary antibodies specific for the following targets were diluted 1:1000 in TBST/3% BSA (w/v): PARP, Bak, Bax, Bim, Bcl-xL (polyclonal, Cell Signaling Technology, Beverly, MA, USA), caspase 9, cl. caspase 9 (monoclonal, Cell Signaling Technology) and β-actin (monoclonal, Clone AC-15, Sigma-Aldrich).
Secondary horseradish peroxidase-labeled antibodies (goat anti-rabbit or anti-mouse, Santa Cruz Biotechnology, Dallas, Texas, TX, USA) were diluted 1:10,000 in TBST/1% BSA.
(black circles), human non-malignant keratinocytes HaCaT (open circles), murine colon carcinoma CT-26 (asterisks), human cervix carcinoma KB-3-1 (gray triangle) and human colon carcinoma SW480 cells (gray square) at higher density. Cells were grown to a 50-60% confluence and treated with the […]
The IC50 level is indicated by the dotted line. Mean values (± SD) of one representative experiment in triplicate are shown.
Figure S4. […]
Significant differences to untreated controls are marked by asterisks (***p<0.001). (c) Expression of PARP and caspase 9 and amount of cleaved (Cl.) PARP and cleaved Caspase 9, as well as protein expression of Bim, Bax, Bak and Bcl-xL in beauvericin-treated (24 h) and untreated cells were determined by Western Blotting. β-actin served as loading control. […]

[9] = SW620, sparse (5–10% confluency), 72 h
[10] = KB-3-1, sparse (5–10% confluency)
[11] = SW480, sparse (5–10% confluency)

Substance: beauvericin
- Vessel forming and migratory ability of HUVEC cells (HUVEC cells): distinctly inhibited
- Mean IC25 ± SD [1, 9]: 0.3 ± 0.02 µM
- Mean IC75 ± SD [1, 9]: 1.9 ± 0.2 µM
- IC50 ([1]; SW620, sparse (5–10% confluency), 72 h, read-out: Mean IC50 ± SD): 0.7 ± 0.1 µM
- IC50 of SW620 lower as compared to SW480 ([1]; sparse conditions): 4.7 fold
- IC50 of SW620 lower than normal HaCaT cells ([1]; sparse conditions): 5.6 fold
- IC50 ([2]; KB-3-1, higher density (50–60% confluency), read-out: IC50 value): 4.3 µM
- Mean IC25 ± SD [2, 10]: 2.6 ± 0.9 µM
- Mean IC75 ± SD [2, 10]: 3.6 ± 0.9 µM
- IC50 ([2]; KB-3-1, sparse (5–10% confluency), read-out: Mean IC50 ± SD): 3.1 ± 0.7 µM
- IC50 ([3]; SW480, higher density (50–60% confluency), read-out: IC50 value): 3.7 µM
- Mean IC25 ± SD [3, 11]: 2.1 ± 1.3 µM
- Mean IC75 ± SD [3, 11]: 4.2 ± 2.7 µM
- IC50 ([3]; SW480, sparse (5–10% confluency), read-out: Mean IC50 ± SD): 3.3 ± 0.3 µM
- Mean IC25 ± SD [4]: 1.6 ± 0.8 µM
- Mean IC75 ± SD [4]: 4.5 ± 1.2 µM
- IC50 ([4]; read-out: Mean IC50 ± SD): 2.2 ± 0.7 µM
- Mean IC25 ± SD [5]: 2.2 ± 0.6 µM
- Mean IC75 ± SD [5]: 6.3 ± 2.1 µM
- IC50 ([5]; read-out: Mean IC50 ± SD): 3.6 ± 1.2 µM
- IC50 ([6]; higher density (50–60% confluency), read-out: IC50 value): > 10 µM
- Mean IC25 ± SD ([6]; sparse (5–10% confluency)): 2.7 ± 0.2 µM
- Mean IC75 ± SD ([6]; sparse (5–10% confluency)): 4.8 ± 0.7 µM
- IC50 ([6]; sparse (5–10% confluency), read-out: Mean IC50 ± SD): 3.9 ± 0.4 µM
- Cell cycle effect (KB-3-1 cells [7]): cell cycle arrest in the G0/G1-phase
- Antiapoptotic Bcl-xL (KB-3-1 cells [8]): reduced
- Cleavage of PARP and caspase 9 (KB-3-1 cells [8]): induced
- Proapoptotic Bcl-2 family members Bim and Bak (KB-3-1 cells [8]): upregulation
